Measurements as given in patent US8729113B2 (Hoffmann-La Roche Inc., priority 2008, dated 2014).

Biological target: TAAR1 (Mus musculus (Mouse), UniProt Q923Y8)
Experiment: Radioligand binding assay on TAAR1 (membranes of stably transfected HEK293 cells)
Conditions: competition with [3H]-rac-2-(1,2,3,4-tetrahydro-1-naphthyl)-2-imidazoline, 4° C., 30 min
Method: For the construction of expression plasmids the coding sequences of human, rat and mouse TAAR 1 were amplified from genomic DNA essentially as described by Lindemann et al.. The Expand High Fidelity PCR System (Roche Diagnostics) was used with 1.5 mM Mg^2+ and purified PCR products were cloned into pCR2.1—TOPO cloning vector (Invitrogen) following the instructions of the manufacturer. PCR products were subcloned into the pIRESneo2 vector (BD Clontech, Palo Alto, Calif.), and expression vectors were sequence verified before introduction in cell lines.
HEK293 cells (ATCC # CRL-1573) were cultured essentially as described Lindemann et al. (2005). For the generation of stably transfected cell lines HEK293 cells were transfected with the pIRESneo2 expression plasmids containing the TAAR coding sequences (described above) with Lipofectamine 2000 (Invitrogen) according to the instructions of the manufacturer, and 24 hrs post transfection the culture medium was supplemented with 1 mg/ml G418 (Sigma, Buchs, Switzerland). After a culture period of about 10 d clones were isolated, expanded and tested for responsiveness to trace amines (all compounds purchased from Sigma) with the cAMP Biotrak Enzyme immunoassay (EIA) System (Amersham) following the non-acetylation EIA procedure provided by the manufacturer. […] Membrane Preparation and Radioligand Binding
Cells at confluence were rinsed with ice-cold phosphate buffered saline without Ca^2+ and Mg^2+ containing 10 mM EDTA and pelleted by centrifugation at 1000 rpm for 5 min at 4° C. The pellet was then washed twice with ice-cold phosphate buffered saline and cell pellet was frozen immediately by immersion in liquid nitrogen and stored until use at −80° C. Cell pellet was then suspended in 20 ml HEPES-NaOH (20 mM), pH 7.4 containing 10 mM EDTA, and homogenized with a Polytron (PT 3000, Kinematica) at 10,000 rpm for 10 s. The homogenate was centrifuged at 48,000×g for 30 min at 4° C. and the pellet resuspended in 20 ml HEPES-NaOH (20 mM), pH 7.4 containing 0.1 mM EDTA (buffer A), and homogenized with a Polytron at 10,000 rpm for 10 s. The homogenate was then centrifuged at 48,000×g for 30 min at 4° C. and the pellet resuspended in 20 ml buffer A, and homogenized with a Polytron at 10,000 rpm for 10 s. Protein concentration was determined by the method of Pierce (Rockford, Ill.). The homogenate was then centrifuged at 48,000×g for 10 min at 4° C., resuspended in HEPES-NaOH (20 mM), pH 7.0 including MgCl2 (10 mM) and […] homogenized with a Polytron at 10,000 rpm for 10 s.
Binding assay was performed at 4° C. in a final volume of 1 ml, and with an incubation time of 30 min. The radioligand [^3H]-rac-2-(1,2,3,4-tetrahydro-1-naphthyl)-2-imidazoline was used at a concentration equal to the calculated Kd value of 60 nM to give a bound at around 0.1% of the total added radioligand concentration, and a specific binding which represented approximately 70-80% of the total binding. Non-specific binding was defined as the amount of [^3H]-rac-2-(1,2,3,4-tetrahydro-1-naphthyl)-2-imidazoline bound in the presence of the appropriate unlabelled ligand (10 μM). Competing ligands were tested in a wide range of concentrations […]. […] Each experiment was performed in duplicate. All incubations were terminated by rapid filtration through UniFilter-96 plates (Packard Instrument Company) and glass filter GF/C, pre-soaked for at least 2 h in polyethylenimine 0.3%, and using a Filtermate 96 Cell Harvester (Packard Instrument Company). The tubes and filters were then washed 3 times with 1 ml aliquots of cold buffer B. Filters were not dried and soaked in Ultima gold (45 μl/well, Packard Instrument Company) and bound radioactivity was counted by a TopCount Microplate Scintillation Counter (Packard Instrument Company).

Chain of TAAR1 (Q923Y8 whole entry): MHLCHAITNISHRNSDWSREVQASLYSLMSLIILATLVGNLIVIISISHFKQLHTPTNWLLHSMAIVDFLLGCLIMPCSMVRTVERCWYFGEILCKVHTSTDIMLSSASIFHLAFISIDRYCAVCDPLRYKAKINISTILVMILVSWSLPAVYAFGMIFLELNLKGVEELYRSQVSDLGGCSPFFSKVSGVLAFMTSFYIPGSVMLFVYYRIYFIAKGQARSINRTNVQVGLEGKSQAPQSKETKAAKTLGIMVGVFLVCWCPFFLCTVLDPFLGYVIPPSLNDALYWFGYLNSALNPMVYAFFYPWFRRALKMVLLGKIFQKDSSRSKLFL

Compound	Ki [µM]
NC1=N[C@@H](CCOc2ccccc2)CO1 [Example 1, (S)-4-(2-Phenoxy-ethyl)-4,5-dihydro-oxazol-2-ylamine]	0.0017
NC1=N[C@@H](CCOc2ccc(F)cc2)CO1 [Example 2, (S)-4-[2-(4-Fluoro-phenoxy)-ethyl]-4,5-dihydro-oxazol-2-ylamine]	0.0028
NC1=N[C@@H](CCOc2ccc(Cl)cc2)CO1 [Example 3, (S)-4-[2-(4-Chloro-phenoxy)-ethyl]-4,5-dihydro-oxazol-2-ylamine]	0.0005
NC1=N[C@@H](CCOc2cccc(C(F)(F)F)c2)CO1 [Example 4, (S)-4-[2-(3-Trifluoromethyl-phenoxy)-ethyl]-4,5-dihydro-oxazol-2-ylamine]	0.0009
NC1=N[C@@H](CCOc2cccc(Cl)c2)CO1 [Example 5, (S)-4-[2-(3-Chloro-phenoxy)-ethyl]-4,5-dihydro-oxazol-2-ylamine]	0.0003
NC1=N[C@@H](CCOc2ccccc2Cl)CO1 [Example 6, (S)-4-[2-(2-Chloro-phenoxy)-ethyl]-4,5-dihydro-oxazol-2-ylamine]	0.0041
CC(C)(CC[C@H]1COC(N)=N1)c1ccccc1 [Example 7, (S)-4-(3-Methyl-3-phenyl-butyl)-4,5-dihydro-oxazol-2-ylamine]	0.0032
NC1=N[C@@H](CCOc2ccc(F)c(Cl)c2)CO1 [Example 8, (S)-4-[2-(3-Chloro-4-fluoro-phenoxy)-ethyl]-4,5-dihydro-oxazol-2-ylamine]	0.0002
NC1=N[C@@H](CCOc2ccc(F)c(F)c2)CO1 [Example 9, (S)-4-[2-(3,4-Difluoro-phenoxy)-ethyl]-4,5-dihydro-oxazol-2-ylamine]	0.0012
NC1=N[C@@H](CCOc2ccc(F)cc2Cl)CO1 [Example 10, (S)-4-[2-(2-Chloro-4-fluoro-phenoxy)-ethyl]-4,5-dihydro-oxazol-2-ylamine]	0.0021
NC1=N[C@@H](CCOc2ccc(F)cc2F)CO1 [Example 11, (S)-4-[2-(2,4-Difluoro-phenoxy)-ethyl]-4,5-dihydro-oxazol-2-ylamine]	0.0011
CC(CC[C@H]1COC(N)=N1)c1ccccc1 (stereo partly drawn) [Example 13, (4S)-4-(3-Phenyl-butyl)-4,5-dihydro-oxazol-2-ylamine]	0.0073
CCC(CC[C@H]1COC(N)=N1)c1ccccc1 (stereo partly drawn) [Example 14, (4S)-4-(3-Phenyl-pentyl)-4,5-dihydro-oxazol-2-ylamine]	0.0056
CC(CC[C@H]1COC(N)=N1)c1ccc(F)cc1 (stereo partly drawn) [Example 17, (4S)-4-[3-(4-Fluoro-phenyl)-butyl]-4,5-dihydro-oxazol-2-ylamine]	0.0012
CCC(CC[C@H]1COC(N)=N1)c1ccc(F)cc1 (stereo partly drawn) [Example 18, (4S)-4-[3-(4-Fluoro-phenyl)-pentyl]-4,5-dihydro-oxazol-2-ylamine]	0.0026
NC1=N[C@@H](CCOc2cccc(OC(F)(F)F)c2)CO1 [Example 19, (S)-4-[2-(3-Trifluoromethoxy-phenoxy)-ethyl]-4,5-dihydro-oxazol-2-ylamine]	0.0021
COc1cccc(OCC[C@H]2COC(N)=N2)c1 [Example 20, (S)-4-[2-(3-Methoxy-phenoxy)-ethyl]-4,5-dihydro-oxazol-2-ylamine]	0.0025
CC(C)c1cccc(OCC[C@H]2COC(N)=N2)c1 [Example 21, (S)-4-[2-(3-Isopropyl-phenoxy)-ethyl]-4,5-dihydro-oxazol-2-ylamine]	0.0017
NC1=N[C@@H](CC2CC2c2ccccc2)CO1 (stereo partly drawn) [Example 23, (4S)-4-(2-Phenyl-cyclopropylmethyl)-4,5-dihydro-oxazol-2-ylamine]	0.0031
CC(OC[C@H]1COC(N)=N1)c1ccccc1 (stereo partly drawn) [Example 24, (4S)-4-(1-Phenyl-ethoxymethyl)-4,5-dihydro-oxazol-2-ylamine]	0.0084

Compound	Ki [µM]
CC(C)(CC[C@H]1COC(N)=N1)c1ccc(F)cc1 [Example 25, (S)-4-[3-(4-Fluoro-phenyl)-3-methyl-butyl]-4,5-dihydro-oxazol-2-ylamine]	0.003
CC(C)(CC[C@H]1COC(N)=N1)c1ccc(Cl)cc1 [Example 26, (S)-4-[3-(4-Chloro-phenyl)-3-methyl-butyl]-4,5-dihydro-oxazol-2-ylamine]	0.0007
CCC(CC[C@H]1COC(N)=N1)c1ccc(Cl)cc1 (stereo partly drawn) [Example 27, (4S)-4-[3-(4-Chloro-phenyl)-pentyl]-4,5-dihydro-oxazol-2-ylamine]	0.0017
CCC(CC[C@H]1COC(N)=N1)c1cccc(C(F)(F)F)c1 (stereo partly drawn) [Example 28, (4S)-4-[3-(3-Trifluoromethyl-phenyl)-pentyl]-4,5-dihydro-oxazol-2-ylamine]	0.0013
NC1=N[C@@H](CCC2(c3ccc(Cl)cc3)CC2)CO1 [Example 30, (S)-4-{2-[1-(4-Chloro-phenyl)-cyclopropyl]-ethyl}-4,5-dihydro-oxazol-2-ylamine]	0.0004
Cc1cccc(OCC[C@H]2COC(N)=N2)c1 [Example 32, (S)-4-(2-m-Tolyloxy-ethyl)-4,5-dihydro-oxazol-2-ylamine]	0.0007
NC1=N[C@@H](CCOc2cccc(-c3ccccc3)c2)CO1 [Example 33, (S)-4-[2-(Biphenyl-3-yloxy)-ethyl]-4,5-dihydro-oxazol-2-ylamine]	0.0018
NC1=N[C@@H](CCOc2cccc(OCc3ccccc3)c2)CO1 [Example 34, (S)-4-[2-(3-Benzyloxy-phenoxy)-ethyl]-4,5-dihydro-oxazol-2-ylamine]	0.0008
NC1=N[C@@H](CCOc2cccc(Br)c2)CO1 [Example 35, (S)-4-[2-(3-Bromo-phenoxy)-ethyl]-4,5-dihydro-oxazol-2-ylamine]	0.0001
NC1=N[C@@H](CCOc2ccc(Oc3ccccc3)cc2)CO1 [Example 36, (S)-4-[2-(4-Phenoxy-phenoxy)-ethyl]-4,5-dihydro-oxazol-2-ylamine]	0.0039
C[C@@H](C[C@H]1COC(N)=N1)Oc1ccc(Cl)cc1 [Example 45, (S)-4-[(S)-2-(4-Chloro-phenoxy)-propyl]-4,5-dihydro-oxazol-2-ylamine]	0.0028
NC1=N[C@@H](CCOc2ccc(Cc3ccccc3)cc2)CO1 [Example 47, (S)-4-[2-(4-Benzyl-phenoxy)-ethyl]-4,5-dihydro-oxazol-2-ylamine]	0.0048
NC1=N[C@@H](CCOc2ccc(-c3ccc(F)cc3)cc2)CO1 [Example 48, (S)-4-[2-(4′-Fluoro-biphenyl-4-yloxy)-ethyl]-4,5-dihydro-oxazol-2-ylamine]	0.0016
NC1=N[C@@H](CCOc2ccc(Cl)c(F)c2)CO1 [Example 54, (S)-4-[2-(4-Chloro-3-fluoro-phenoxy)-ethyl]-4,5-dihydro-oxazol-2-ylamine]	0.0014
NC1=N[C@@H](CCOc2ccc(Br)cc2)CO1 [Example 55, (S)-4-[2-(4-Bromo-phenoxy)-ethyl]-4,5-dihydro-oxazol-2-ylamine]	0.0025
NC1=N[C@@H](CCOc2ccc(Cl)c(Cl)c2)CO1 [Example 57, (S)-4-[2-(3,4-Dichloro-phenoxy)-ethyl]-4,5-dihydro-oxazol-2-ylamine]	0.0003
NC1=N[C@@H](CCOc2ccc(Cl)cc2F)CO1 [Example 58, (S)-4-[2-(4-Chloro-2-fluoro-phenoxy)-ethyl]-4,5-dihydro-oxazol-2-ylamine]	0.0041
COc1ccc(OCC[C@H]2COC(N)=N2)cc1 [Example 59, (S)-4-[2-(4-Methoxy-phenoxy)-ethyl]-4,5-dihydro-oxazol-2-ylamine]	0.0076
NC1=N[C@@H](CCC2(c3ccc(F)cc3)CC2)CO1 [Example 60, (S)-4-{2-[1-(4-Fluoro-phenyl)-cyclopropyl]-ethyl}-4,5-dihydro-oxazol-2-ylamine]	0.0025
